From patent US8383629B2, “Inhibitors of 11β-hydroxysteroid dehydrogenase type 1” (Vitae Pharmaceuticals, Inc., priority 2008, dated 2013)

Molecular target: T1, human 11β-HSD1 (Homo sapiens, UniProt P28845)
T1 construct: expressed in transfected cells; host or cells: CHO cells (microsomes)
Test: Inhibition of microsomal preparation of 11β-HSD1 (SPA, Biological Test Example 1)
Assay type: biochemical
Conditions: for IC50: microsomes from CHO cells overexpressing human 11β-HSD1, read-out: IC50 Range
Description: The inhibition of microsomal preparation of 11β-HSD1 by compounds of the invention was measured essentially as previously described (K. Solly, S. S. Mundt, H. J. Zokian, G. J. Ding, A. Hermanowski-Vosatka, B. Strulovici, and W. Zheng, High-Throughput Screening of 11-Beta-Hydroxysteroid Dehydrogenase Type 1 in Scintillation Proximity Assay Format. Assay Drug Dev Technol 3 (2005) 377-384). All reactions were carried out at rt in 96 well clear flexible PET Microbeta plates (PerkinElmer). The assay begins by dispensing 49 μl of substrate solution (50 mM HEPES, pH 7.4, 100 mM KCl, 5 mM NaCl, 2 mM MgCl2, 2 mM NADPH and 160 nM [^3H]cortisone (1 Ci/mmol)) and mixing in 1 μL of the test compounds in DMSO previously diluted in half-log increments (8 points) starting at 0.1 mM. After a 10 minute pre-incubation, 50 μL of enzyme solution containing microsomes isolated from CHO cells overexpressing human 11β-HSD1 (10-20 μg/ml of total protein) was added, and the plates were incubated for 90 minutes at rt. The reaction was stopped by adding 50 μl of the SPA beads suspension containing 10 μM 18β-glycyrrhetinic acid, 5 mg/ml protein A coated YSi SPA beads (GE Healthcare) and 3.3 μg/ml of anti-cortisol antibody (East Coast Biologics) in Superblock buffer (Bio-Rad). The plates were shaken for 120 minutes at rt, and the SPA signal corresponding to [^3H]cortisol was measured on a Microbeta plate reader.

T1 sequence (P28845 whole entry): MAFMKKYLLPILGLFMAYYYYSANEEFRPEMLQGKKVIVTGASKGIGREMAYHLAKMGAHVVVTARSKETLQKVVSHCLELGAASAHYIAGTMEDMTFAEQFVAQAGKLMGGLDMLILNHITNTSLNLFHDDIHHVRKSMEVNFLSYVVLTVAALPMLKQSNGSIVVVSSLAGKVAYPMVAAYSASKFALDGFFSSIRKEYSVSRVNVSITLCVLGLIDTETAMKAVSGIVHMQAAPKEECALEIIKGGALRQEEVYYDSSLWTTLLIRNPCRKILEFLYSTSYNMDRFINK

Row | SMILES | inhibition at 0.1 µM (100 nM) | inhibition at 0.111 µM (111 nM) | IC50 | Average % inhibition at 111 nM (111 nM, 0.111 µM) | Average % inhibition at 100 nM (100 nM, 0.1 µM)
1 | CCOC(=O)CC1CC2(CCN(C(=O)/C=C/c3ccccc3C(F)(F)F)CC2)c2c(Br)cccc21 (racemic) [EXAMPLE 1, (±)-(E)-ethyl 2-(7-bromo-1′-(3-(2-(trifluoromethyl)phenyl)acryloyl)-2,3-dihydrospiro[indene-1,4′-piperidine]-3-yl)acetate] | 94.9% | 89.4% | < 100 nM | – | –
2 | O=C(O)CC1CC2(CCN(C(=O)/C=C/c3ccccc3C(F)(F)F)CC2)c2c(Br)cccc21 (racemic) [EXAMPLE 2, (±)-(E)-2-(7-bromo-1′-(3-(2-(trifluoromethyl)phenyl)acryloyl)-2,3-dihydrospiro[indene-1,4′-piperidine]-3-yl)acetic acid] | 91.7% | 97.4% | < 100 nM | – | –
3 | O=C(O)CC1CC2(CCN(C(=O)/C=C/c3ccccc3C(F)(F)F)CC2)c2c(Cl)cccc21 (racemic) [EXAMPLE 3, (±)-(E)-2-(7-chloro-1′-(3-(2-(trifluoromethyl)phenyl)acryloyl)-2,3-dihydrospiro[indene-1,4′-piperidine]-3-yl)acetic acid] | 96.3% | – | < 100 nM | – | –
4 | O=C(O)CC1CC2(CCN(C(=O)/C=C/c3ccc(F)cc3C(F)(F)F)CC2)c2c(Cl)cccc21 (racemic) [EXAMPLE 4, (±)-(E)-2-(7-chloro-1′-(3-(4-fluoro-2-(trifluoromethyl)phenyl)acryloyl)-2,3-dihydrospiro[indene-1,4′-piperidine]-3-yl)acetic acid] | – | 94.2% | < 100 nM | – | –
5 | O=C(O)CC1CC2(CCN(C(=O)/C=C/c3cc(F)ccc3C(F)(F)F)CC2)c2c(Cl)cccc21 (racemic) [EXAMPLE 5, (±)-(E)-2-(7-chloro-1′-(3-(5-fluoro-2-(trifluoromethyl)phenyl)acryloyl)-2,3-dihydrospiro[indene-1,4′-piperidine]-3-yl)acetic acid] | – | 83.3% | < 100 nM | – | –
6 | NC(=O)CC1CC2(CCN(C(=O)/C=C/c3ccccc3C(F)(F)F)CC2)c2c(Cl)cccc21 (racemic) [EXAMPLE 6, (±)-(E)-2-(7-chloro-1′-(3-(2-(trifluoromethyl)phenyl)acryloyl)-2,3-dihydrospiro[indene-1,4′-piperidine]-3-yl)acetamide] | – | 97.4% | < 100 nM | – | –
7 | CNCCN(C)C(=O)CC1CC2(CCN(C(=O)/C=C/c3ccccc3C(F)(F)F)CC2)c2c(Cl)cccc21 (racemic) [EXAMPLE 7, (±)-(E)-2-(7-chloro-1′-(3-(2-(trifluoromethyl)phenyl)acryloyl)-2,3-dihydrospiro[indene-1,4′-piperidine]-3-yl)-N-methyl-N-(2-(methylamino)ethyl)acetamide] | – | 87.3% | < 100 nM | – | –
8 | O=C(O)CC1CC2(CCN(C(=O)/C=C/c3ccccc3Cl)CC2)c2c(Cl)cccc21 (racemic) [EXAMPLE 8, (±)-(E)-2-(7-chloro-1′-(3-(2-chlorophenyl)acryloyl)-2,3-dihydrospiro[indene-1,4′-piperidine]-3-yl)acetic acid] | – | 85.5% | < 100 nM | – | –
9 | O=C(O)CC1CC2(CCN(C(=O)/C=C/c3cccc(Cl)c3Cl)CC2)c2c(Cl)cccc21 (racemic) [EXAMPLE 9, (±)-(E)-2-(7-chloro-1′-(3-(2,3-dichlorophenyl)acryloyl)-2,3-dihydrospiro[indene-1,4′-piperidine]-3-yl)acetic acid] | – | 77.8% | < 100 nM | – | –
10 | Cc1ccc2c(c1)C1(CCN(C(=O)/C=C/c3ccccc3C(F)(F)F)CC1)CC2CC(=O)O (racemic) [EXAMPLE 10, (±)-(E)-2-(6-methyl-1′-(3-(2-(trifluoromethyl)phenyl)acryloyl)-2,3-dihydrospiro[indene-1,4′-piperidine]-3-yl)acetic acid] | – | 87.7% | < 100 nM | – | –
11 | O=C(O)CC1CC2(CCN(C(=O)/C=C/c3ccccc3C(F)(F)F)CC2)c2cc(F)ccc21 (racemic) [EXAMPLE 11, (±)-(E)-2-(6-fluoro-1′-(3-(2-(trifluoromethyl)phenyl)acryloyl)-2,3-dihydrospiro[indene-1,4′-piperidine]-3-yl)acetic acid] | – | 75.1% | < 100 nM | – | –
12 | Cc1ccc2c(c1)C(CC(=O)O)CC21CCN(C(=O)/C=C/c2ccccc2C(F)(F)F)CC1 (racemic) [EXAMPLE 12, (±)-(E)-2-(5-methyl-1′-(3-(2-(trifluoromethyl)phenyl)acryloyl)-2,3-dihydrospiro[indene-1,4′-piperidine]-3-yl)acetic acid] | – | 90.3% | < 100 nM | – | –
13 | NC(=O)CC1CC2(CCN(C(=O)/C=C/c3ccccc3C(F)(F)F)CC2)c2c(Br)cccc21 (racemic) [EXAMPLE 13, (±)-(E)-2-(7-bromo-1′-(3-(2-(trifluoromethyl)phenyl)acryloyl)-2,3-dihydrospiro[indene-1,4′-piperidine]-3-yl)acetamide] | 94.6% | 94.8% | < 100 nM | – | –
14 | NC(=O)CC1CC2(CCN(C(=O)/C=C/c3ccccc3C(F)(F)F)CC2)c2cc(F)ccc21 (racemic) [EXAMPLE 14, (±)-(E)-2-(6-fluoro-1′-(3-(2-(trifluoromethyl)phenyl)acryloyl)-2,3-dihydrospiro[indene-1,4′-piperidine]-3-yl)acetamide] | 85.6% | 90.9% | < 100 nM | – | –
15 | O=C(/C=C/c1ccccc1C(F)(F)F)N1CCC2(CC1)CC(O)c1cccc(Br)c12 (racemic) [EXAMPLE 16, (±)-(E)-1-(7-bromo-3-hydroxy-2,3-dihydrospiro[indene-1,4′-piperidine]-1′-yl)-3-(2-(trifluoromethyl)phenyl)prop-2-en-1-one] | 95.3% | 98.6% | < 100 nM | – | –
16 | NC1CC2(CCN(C(=O)/C=C/c3ccccc3C(F)(F)F)CC2)c2c(Br)cccc21 (racemic) [EXAMPLE 18, (±)-(E)-1-(3-amino-7-bromo-2,3-dihydrospiro[indene-1,4′-piperidine]-1′-yl)-3-(2-(trifluoromethyl)phenyl)prop-2-en-1-one] | – | 93.3% | < 100 nM | – | –
17 | CNC(=O)NC1CC2(CCN(C(=O)/C=C/c3ccccc3C(F)(F)F)CC2)c2c(Br)cccc21 (racemic) [EXAMPLE 19, (±)-(E)-1-(7-bromo-1′-(3-(2-(trifluoromethyl)phenyl)acryloyl)-2,3-dihydrospiro[indene-1,4′-piperidine]-3-yl)-3-methylurea] | 98.1% | – | < 100 nM | – | –
18 | NC1CC2(CCN(C(=O)Cc3ccccc3C(F)(F)F)CC2)c2c(Br)cccc21 (racemic) [EXAMPLE 46, (±)-1-(3-amino-7-bromo-2,3-dihydrospiro[indene-1,4′-piperidine]-1′-yl)-2-(2-(trifluoromethyl)phenyl)ethanone] | – | 78.6% | < 100 nM | – | –
19 | O=C(O)CC1CC2(CCN(C(=O)CCc3ccccc3C(F)(F)F)CC2)c2c(Br)cccc21 (single isomer, unassigned) [EXAMPLE 70.1] | – | 97.6% | < 100 nM | – | –
20 | O=C(O)CC1CC2(CCN(C(=O)CCc3ccccc3C(F)(F)F)CC2)c2c(Br)cccc21 (single isomer, unassigned) [EXAMPLE 70.2] | 95.7% | – | < 100 nM | 99.2% | –
21 | O=C(O)CC1CC2(CCN(C(=O)/C=C/c3ccccc3C(F)(F)F)CC2)c2c(Br)cccc21 (single isomer, unassigned; isomer 1) [EXAMPLE 2.1, (±)-(E)-2-(7-bromo-1′-(3-(2-(trifluoromethyl)phenyl)acryloyl)-2,3-dihydrospiro[indene-1,4′-piperidine]-3-yl)acetic acid isomer 1] | 96.6% | – | < 100 nM | – | –
22 | O=C(O)CC1CC2(CCN(C(=O)/C=C/c3ccccc3C(F)(F)F)CC2)c2c(Br)cccc21 (single isomer, unassigned; isomer 2) [EXAMPLE 2.2, (E)-2-(7-bromo-1′-(3-(2-(trifluoromethyl)phenyl)acryloyl)-2,3-dihydrospiro[indene-1,4′-piperidine]-3-yl)acetic acid isomer 2] | – | – | < 100 nM | – | 100.3%
23 | O=C1CC2(CCN(C(=O)/C=C/c3ccccc3C(F)(F)F)CC2)c2c(Br)cccc21 [EXAMPLE 15, (E)-7-bromo-1′-(3-(2-(trifluoromethyl)phenyl)acryloyl)spiro[indene-1,4′-piperidin]-3(2H)-one] | 95.3% | 92.6% | < 100 nM | – | –
24 | O=C1CC2(CCN(C(=O)/C=C/c3c(Cl)cccc3Cl)CC2)c2c(Br)cccc21 [EXAMPLE 17, (E)-7-bromo-1′-(3-(2,6-dichlorophenyl)acryloyl)spiro[indene-1,4′-piperidin]-3(2H)-one] | – | 81.2% | < 100 nM | – | –
25 | CC(C)(C)OC(=O)N1Cc2ccccc2C2(CCN(C(=O)/C=C/c3ccccc3C(F)(F)F)CC2)C1 [EXAMPLE 20, (E)-tert-butyl 1′-(3-(2-(trifluoromethyl)phenyl)acryloyl)-1H-spiro[isoquinoline-4,4′-piperidine]-2(3H)-carboxylate] | – | 29% | < 100 nM | – | –
